Assays:
Test in all cases: drug sensitivity score (DSS2, normalised partial AUC of dose-response, 72 h CellTiter-Glo viability) (DSS (dimensionless)); higher = more sensitive (stronger growth inhibition / cytotoxicity); extreme values may be limits of the assay
22Rv1 = test system: 22Rv1
In short: (§1)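 In BREEZE, the drug sensitivity score was derived as a partial area under a fitted logistic dose–response curve over the log of that curve's upper asymptote; a higher score marks a more sensitive response. The input came from low-passage primary prostate cancer-associated fibroblasts, PF179T, WPMY-1, LNCaP and 22Rv1 cells, each seeded into 384-well plates with compounds pre-dispensed at five doses spanning a 10,000-fold range. CellTiter-Glo 2.0 luminescence after 72 h gave viability, which was normalized to vehicle and positive-control wells.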

CAF#1 = test system: CAF#1 (primary prostate cancer-associated fibroblasts of myCAF-like type)
In short: as §1

CAF#2 = test system: CAF#2 (primary prostate cancer-associated fibroblasts of iCAF-like type)
In short: as §1

CAF#3 = test system: CAF#3 (primary prostate cancer-associated fibroblasts of myCAF-like type)
In short: as §1

CAF#4 = test system: CAF#4 (primary prostate cancer-associated fibroblasts of iCAF-like type)
In short: as §1

CAF#5 = test system: CAF#5 (primary prostate cancer-associated fibroblasts of myCAF-like type)
In short: as §1

CAF#6 = test system: CAF#6 (primary prostate cancer-associated fibroblasts of iCAF-like type)
In short: as §1

CAF#7 = test system: CAF#7 (primary prostate cancer-associated fibroblasts of myCAF-like type)
In short: as §1

LNCAP = test system: LNCAP
In short: as §1

PF179T = test system: PF179T
In short: as §1

WPMY-1 = test system: WPMY-1
In short: as §1

## C[C@@H](Oc1cc(-c2cnn(C3CCNCC3)c2)cnc1N)c1c(Cl)ccc(F)c1Cl [Crizotinib] (tested concentration range 0.1-1000 nM)
22Rv1
  drug sensitivity score: 0
CAF#1
  drug sensitivity score: 0
CAF#2
  drug sensitivity score: 1.4
CAF#3
  drug sensitivity score: 2.7
CAF#4
  drug sensitivity score: 0
CAF#5
  drug sensitivity score: 1.5
CAF#6
  drug sensitivity score: 2.5
CAF#7
  drug sensitivity score: 0.8
LNCAP
  drug sensitivity score: 0
PF179T
  drug sensitivity score: 1.4
WPMY-1
  drug sensitivity score: 0.5

## Nc1ccn([C@@H]2O[C@H](CO)[C@@H](O)[C@@H]2O)c(=O)n1 [Cytarabine] (tested concentration range 1-10000 nM)
22Rv1
  drug sensitivity score: 14.3
CAF#1
  drug sensitivity score: 1.8
CAF#2
  drug sensitivity score: 10
CAF#3
  drug sensitivity score: 0
CAF#4
  drug sensitivity score: 5.4
CAF#5
  drug sensitivity score: 1.9
CAF#6
  drug sensitivity score: 0.5
CAF#7
  drug sensitivity score: 2.6
LNCAP
  drug sensitivity score: 11.9
PF179T
  drug sensitivity score: 12.9
WPMY-1
  drug sensitivity score: 7.7

## CC(C)(C)c1nc(-c2cccc(NS(=O)(=O)c3c(F)cccc3F)c2F)c(-c2ccnc(N)n2)s1 [Dabrafenib] (tested concentration range 0.2-2500 nM)
22Rv1
  drug sensitivity score: 5.6
CAF#1
  drug sensitivity score: 1.4
CAF#2
  drug sensitivity score: 0.2
CAF#3
  drug sensitivity score: 4.5
CAF#4
  drug sensitivity score: 0
CAF#5
  drug sensitivity score: 3.5
CAF#6
  drug sensitivity score: 2.6
CAF#7
  drug sensitivity score: 4.1
LNCAP
  drug sensitivity score: 4.8
PF179T
  drug sensitivity score: 2.1
WPMY-1
  drug sensitivity score: 0

## COc1cc2ncnc(Nc3ccc(F)c(Cl)c3)c2cc1NC(=O)/C=C/CN1CCCCC1 [Dacomitinib] (tested concentration range 0.1-1000 nM)
22Rv1
  drug sensitivity score: 1
CAF#1
  drug sensitivity score: 0.7
CAF#2
  drug sensitivity score: 1
CAF#3
  drug sensitivity score: 0.6
CAF#4
  drug sensitivity score: 1.4
CAF#5
  drug sensitivity score: 0
CAF#6
  drug sensitivity score: 0
CAF#7
  drug sensitivity score: 0
LNCAP
  drug sensitivity score: 1.4
PF179T
  drug sensitivity score: 0.2
WPMY-1
  drug sensitivity score: 1

## Cc1c2oc3c(C)ccc(C(=O)N[C@@H]4C(=O)N[C@H](C(C)C)C(=O)N5CCC[C@H]5C(=O)N(C)CC(=O)N(C)[C@@H](C(C)C)C(=O)O[C@@H]4C)c3nc-2c(C(=O)N[C@@H]2C(=O)N[C@H](C(C)C)C(=O)N3CCC[C@H]3C(=O)N(C)CC(=O)N(C)[C@@H](C(C)C)C(=O)O[C@@H]2C)c(N)c1=O [Dactinomycin] (tested concentration range 0.1-1000 nM)
22Rv1
  drug sensitivity score: 31.8
CAF#1
  drug sensitivity score: 24.7
CAF#2
  drug sensitivity score: 23.2
CAF#3
  drug sensitivity score: 23
CAF#4
  drug sensitivity score: 17.2
CAF#5
  drug sensitivity score: 21.1
CAF#6
  drug sensitivity score: 19.8
CAF#7
  drug sensitivity score: 22.6
LNCAP
  drug sensitivity score: 39.3
PF179T
  drug sensitivity score: 17.2
WPMY-1
  drug sensitivity score: 26.5

## O=C(/C=C/c1cccnc1)NCCCCC1CCN(C(=O)c2ccccc2)CC1 [Daporinad] (tested concentration range 0.1-1000 nM)
22Rv1
  drug sensitivity score: 25.6
CAF#1
  drug sensitivity score: 13.9
CAF#2
  drug sensitivity score: 25.8
CAF#3
  drug sensitivity score: 12.8
CAF#4
  drug sensitivity score: 23.6
CAF#5
  drug sensitivity score: 13.9
CAF#6
  drug sensitivity score: 16.5
CAF#7
  drug sensitivity score: 17.5
LNCAP
  drug sensitivity score: 26.9
PF179T
  drug sensitivity score: 21.3
WPMY-1
  drug sensitivity score: 29.4

## CCN(CC)CCN(Cc1ccc(-c2ccc(C(F)(F)F)cc2)cc1)C(=O)Cn1c(SCc2ccc(F)cc2)nc(=O)c2c1CCC2 [Darapladib] (tested concentration range 0.1-1000 nM)
22Rv1
  drug sensitivity score: 3.7
CAF#1
  drug sensitivity score: 0
CAF#2
  drug sensitivity score: 0
CAF#3
  drug sensitivity score: 0.1
CAF#4
  drug sensitivity score: 1
CAF#5
  drug sensitivity score: 0.7
CAF#6
  drug sensitivity score: 0
CAF#7
  drug sensitivity score: 0
LNCAP
  drug sensitivity score: 0
PF179T
  drug sensitivity score: 0
WPMY-1
  drug sensitivity score: 1.3

## CC(O)c1cc(C(=O)N[C@@H](C)Cn2ccc(-c3ccc(C#N)c(Cl)c3)n2)n[nH]1 (stereo partly drawn) [Darolutamide] (tested concentration range 0.2-2500 nM)
22Rv1
  drug sensitivity score: 0.6
CAF#1
  drug sensitivity score: 3.1
CAF#2
  drug sensitivity score: 2.2
CAF#3
  drug sensitivity score: 0.1
CAF#4
  drug sensitivity score: 4.4
CAF#5
  drug sensitivity score: 2.9
CAF#6
  drug sensitivity score: 0
CAF#7
  drug sensitivity score: 0
LNCAP
  drug sensitivity score: 0.1
PF179T
  drug sensitivity score: 0
WPMY-1
  drug sensitivity score: 0

## Cc1nc(Nc2ncc(C(=O)Nc3c(C)cccc3Cl)s2)cc(N2CCN(CCO)CC2)n1 [Dasatinib] (tested concentration range 0.1-1000 nM)
22Rv1
  drug sensitivity score: 0
CAF#1
  drug sensitivity score: 13.8
CAF#2
  drug sensitivity score: 15.5
CAF#3
  drug sensitivity score: 13.7
CAF#4
  drug sensitivity score: 10.3
CAF#5
  drug sensitivity score: 15.2
CAF#6
  drug sensitivity score: 13
CAF#7
  drug sensitivity score: 15.3
LNCAP
  drug sensitivity score: 5
PF179T
  drug sensitivity score: 11.7
WPMY-1
  drug sensitivity score: 5.3

## COc1cccc2c1C(=O)c1c(O)c3c(c(O)c1C2=O)C[C@@](O)(C(C)=O)C[C@@H]3O[C@H]1C[C@H](N)[C@H](O)[C@H](C)O1 [Daunorubicin] (tested concentration range 0.1-1000 nM)
22Rv1
  drug sensitivity score: 12.9
CAF#1
  drug sensitivity score: 7.3
CAF#2
  drug sensitivity score: 9.4
CAF#3
  drug sensitivity score: 6.4
CAF#4
  drug sensitivity score: 4.2
CAF#5
  drug sensitivity score: 6.6
CAF#6
  drug sensitivity score: 7.9
CAF#7
  drug sensitivity score: 8.4
LNCAP
  drug sensitivity score: 17.5
PF179T
  drug sensitivity score: 8.6
WPMY-1
  drug sensitivity score: 10.7

## CC[C@@](C)(Nc1ccnc(-c2c[nH]c3ncccc23)n1)C(=O)NCC(F)(F)F [Decernotinib] (tested concentration range 1-10000 nM)
22Rv1
  drug sensitivity score: 0
CAF#1
  drug sensitivity score: 0.2
CAF#2
  drug sensitivity score: 0.1
CAF#3
  drug sensitivity score: 0.5
CAF#4
  drug sensitivity score: 0
CAF#5
  drug sensitivity score: 0
CAF#6
  drug sensitivity score: 0
CAF#7
  drug sensitivity score: 0
LNCAP
  drug sensitivity score: 0
PF179T
  drug sensitivity score: 0
WPMY-1
  drug sensitivity score: 0.7

## Nc1ncn([C@H]2C[C@H](O)[C@@H](CO)O2)c(=O)n1 [Decitabine] (tested concentration range 1-10000 nM)
22Rv1
  drug sensitivity score: 1.1
CAF#1
  drug sensitivity score: 0
CAF#2
  drug sensitivity score: 0.8
CAF#3
  drug sensitivity score: 0.1
CAF#4
  drug sensitivity score: 0
CAF#5
  drug sensitivity score: 1.6
CAF#6
  drug sensitivity score: 0.6
CAF#7
  drug sensitivity score: 0
LNCAP
  drug sensitivity score: 0
PF179T
  drug sensitivity score: 1.8
WPMY-1
  drug sensitivity score: 0.8

## CC(=O)N(O)CCCCCNC(=O)CCC(=O)N(O)CCCCCNC(=O)CCC(=O)N(O)CCCCCN [Deferoxamine] (tested concentration range 1-10000 nM)
22Rv1
  drug sensitivity score: 4.9
CAF#1
  drug sensitivity score: 0.9
CAF#2
  drug sensitivity score: 4.8
CAF#3
  drug sensitivity score: 0.2
CAF#4
  drug sensitivity score: 3.2
CAF#5
  drug sensitivity score: 2.4
CAF#6
  drug sensitivity score: 1.4
CAF#7
  drug sensitivity score: 1.6
LNCAP
  drug sensitivity score: 3.2
PF179T
  drug sensitivity score: 5.7
WPMY-1
  drug sensitivity score: 5.3

Source: the supplement of paper PMC12592484
